# Source: ChEMBL document CHEMBL1148029, “Synthesis and radiopharmacological characterization of 2beta-carbo-2'-[18F]fluoroethoxy-3beta-(4-bromo-phenyl)tropane ([18F]MCL-322) as a PET radiotracer for imaging the dopamine transporter (DAT)” (Bioorg Med Chem, 2007)
# Legend:
# [1] = Biodistribution in Wistar rat fat at 300 uCi, iv after 240 mins; format: ADME, organism-based, Adipose tissue; settings: in vivo, 4 h
# [2] = system: Kidney; assay: Biodistribution in Wistar rat kidney at 300 uCi, iv after 60 mins; format: ADME, organism-based; settings: in vivo, 1 h
# [3] = system: Spleen; assay: Biodistribution in Wistar rat spleen at 300 uCi, iv after 5 mins; format: ADME, organism-based; settings: in vivo
# [4] = system: Plasma; assay: Metabolic stability in Wistar rat plasma assessed as polar metabolite level at 1 mCi, iv after 30 mins; format: ADME, organism-based; settings: in vivo, 0.5 h
# [5] = system: Kidney; assay: Biodistribution in Wistar rat kidney at 300 uCi, iv after 5 mins; format: ADME, organism-based; settings: in vivo
# [6] = system: Brain; assay: Biodistribution in Wistar rat rest of brain at 300 uCi, iv after 60 mins in presence of citalopram; format: ADME, organism-based; settings: in vivo, 1 h
# [7] = system: Spleen; assay: Biodistribution in Wistar rat spleen at 300 uCi, iv after 60 mins; format: ADME, organism-based; settings: in vivo, 1 h
# [8] = system: Pancreas; assay: Biodistribution in Wistar rat pancreas at 300 uCi, iv after 5 mins; format: ADME, organism-based; settings: in vivo
# [9] = system: Adrenal; assay: Biodistribution in Wistar rat adrenal gland at 300 uCi, iv after 240 mins; format: ADME, organism-based, Adrenal tissue; settings: in vivo, 4 h
# [10] = system: Femur; assay: Biodistribution in Wistar rat femur at 300 uCi, iv after 5 mins; format: ADME, organism-based; settings: in vivo
# [11] = system: Hippocampus; assay: Biodistribution in Wistar rat hippocampus at 300 uCi, iv after 240 mins; format: ADME, organism-based; settings: in vivo, 4 h
# [12] = system: Heart; assay: Biodistribution in Wistar rat heart at 300 uCi, iv after 240 mins; format: ADME, organism-based; settings: in vivo, 4 h
# [13] = system: Plasma; assay: Metabolic stability in Wistar rat plasma assessed as polar metabolite level at 1 mCi, iv after 10 mins; format: ADME, organism-based; settings: in vivo
# [14] = system: Plasma; assay: Metabolic stability in Wistar rat plasma assessed as polar metabolite level at 1 mCi, iv after 5 mins; format: ADME, organism-based; settings: in vivo
# [15] = system: Harderian gland; assay: Biodistribution in Wistar rat harderian glands at 300 uCi, iv after 120 mins; format: ADME, organism-based; settings: in vivo, 2 h
# [16] = system: Harderian gland; assay: Biodistribution in Wistar rat harderian glands at 300 uCi, iv after 60 mins; format: ADME, organism-based; settings: in vivo, 1 h
# [17] = Metabolic stability in Wistar rat striatum at 1 mCi, iv after 60 mins; format: ADME, organism-based; settings: read-out: Stability
# [18] = system: Cortex; assay: Biodistribution in Wistar rat cortex at 300 uCi, iv after 60 mins in presence of nisoxetine; format: ADME, organism-based; settings: in vivo, 1 h
# [19] = system: Heart; assay: Biodistribution in Wistar rat heart at 300 uCi, iv after 120 mins; format: ADME, organism-based; settings: in vivo, 2 h
# [20] = system: Heart; assay: Biodistribution in Wistar rat heart at 300 uCi, iv after 20 mins; format: ADME, organism-based; settings: in vivo
# [21] = system: Cortex; assay: Biodistribution in Wistar rat cortex at 300 uCi, iv after 5 mins; format: ADME, organism-based; settings: in vivo
# [22] = Biodistribution in Wistar rat hair and skin at 300 uCi, iv after 120 mins; format: ADME, organism-based; settings: in vivo, 2 h
# [23] = system: Cerebellum; assay: Biodistribution in Wistar rat cerebellum at 300 uCi, iv after 240 mins; format: ADME, organism-based; settings: in vivo, 4 h
# [24] = system: Thymus; assay: Biodistribution in Wistar rat thymus at 300 uCi, iv after 60 mins; format: ADME, organism-based; settings: in vivo, 1 h
# [25] = system: Plasma; assay: Metabolic stability in Wistar rat plasma assessed as polar metabolite level at 1 mCi, iv after 60 mins; format: ADME, organism-based; settings: in vivo, 1 h
# [26] = system: Cerebellum; assay: Biodistribution in Wistar rat cerebellum at 300 uCi, iv after 5 mins; format: ADME, organism-based; settings: in vivo
# [27] = system: Plasma; assay: Metabolic stability in Wistar rat plasma assessed as polar metabolite level at 1 mCi, iv after 240 mins; format: ADME, organism-based; settings: in vivo, 4 h
# [28] = system: Kidney; assay: Biodistribution in Wistar rat kidney at 300 uCi, iv after 240 mins; format: ADME, organism-based; settings: in vivo, 4 h
# [29] = system: Thymus; assay: Biodistribution in Wistar rat thymus at 300 uCi, iv after 5 mins; format: ADME, organism-based; settings: in vivo
# [30] = system: Brain; assay: Biodistribution in Wistar rat rest of brain at 300 uCi, iv after 60 mins in presence of nisoxetine; format: ADME, organism-based; settings: in vivo, 1 h
# [31] = system: Cerebellum; assay: Biodistribution in Wistar rat cerebellum at 300 uCi, iv after 60 mins; format: ADME, organism-based; settings: in vivo, 1 h
# [32] = system: Muscle tissue; assay: Biodistribution in Wistar rat muscle at 300 uCi, iv after 5 mins; format: ADME, organism-based; settings: in vivo
# [33] = Biodistribution in Wistar rat fat at 300 uCi, iv after 20 mins; format: ADME, organism-based, Adipose tissue; settings: in vivo
# [34] = system: Heart; assay: Biodistribution in Wistar rat heart at 300 uCi, iv after 60 mins; format: ADME, organism-based; settings: in vivo, 1 h
# [35] = system: Pancreas; assay: Biodistribution in Wistar rat pancreas at 300 uCi, iv after 20 mins; format: ADME, organism-based; settings: in vivo
# [36] = system: Cortex; assay: Biodistribution in Wistar rat cortex at 300 uCi, iv after 20 mins; format: ADME, organism-based; settings: in vivo
# [37] = system: Blood; assay: Biodistribution in Wistar rat blood at 300 uCi, iv after 60 mins; format: ADME, organism-based; settings: in vivo, 1 h
# [38] = Biodistribution in Wistar rat rest of brain at 300 uCi, iv after 20 mins; format: ADME, organism-based; settings: in vivo
# [39] = system: Blood; assay: Biodistribution in Wistar rat blood at 300 uCi, iv after 5 mins; format: ADME, organism-based; settings: in vivo
# [40] = system: Adrenal; assay: Biodistribution in Wistar rat adrenal gland at 300 uCi, iv after 120 mins; format: ADME, organism-based, Adrenal tissue; settings: in vivo, 2 h
# [41] = system: Striatum; assay: Biodistribution in Wistar rat striatum at 300 uCi, iv after 5 mins; format: ADME, organism-based; settings: in vivo
# [42] = system: Cortex; assay: Biodistribution in Wistar rat cortex at 300 uCi, iv after 120 mins; format: ADME, organism-based; settings: in vivo, 2 h
# [43] = system: Lung; assay: Biodistribution in Wistar rat lung at 300 uCi, iv after 5 mins; format: ADME, organism-based; settings: in vivo
# [44] = system: Striatum; assay: Biodistribution in Wistar rat striatum at 300 uCi, iv after 60 mins in presence of citalopram; format: ADME, organism-based; settings: in vivo, 1 h
# [45] = Biodistribution in Wistar rat hair and skin at 300 uCi, iv after 240 mins; format: ADME, organism-based; settings: in vivo, 4 h
# [46] = system: Cortex; assay: Biodistribution in Wistar rat cortex at 300 uCi, iv after 60 mins in presence of citalopram; format: ADME, organism-based; settings: in vivo, 1 h
# [47] = system: Kidney; assay: Biodistribution in Wistar rat kidney at 300 uCi, iv after 20 mins; format: ADME, organism-based; settings: in vivo
# [48] = system: Femur; assay: Biodistribution in Wistar rat femur at 300 uCi, iv after 60 mins; format: ADME, organism-based; settings: in vivo, 1 h
# [49] = Biodistribution in Wistar rat rest of brain at 300 uCi, iv after 120 mins; format: ADME, organism-based; settings: in vivo, 2 h
# [50] = system: Blood; assay: Biodistribution in Wistar rat blood at 300 uCi, iv after 20 mins; format: ADME, organism-based; settings: in vivo
# [51] = system: Lung; assay: Biodistribution in Wistar rat lung at 300 uCi, iv after 20 mins; format: ADME, organism-based; settings: in vivo
# [52] = system: Spleen; assay: Biodistribution in Wistar rat spleen at 300 uCi, iv after 240 mins; format: ADME, organism-based; settings: in vivo, 4 h
# [53] = system: Cerebellum; assay: Biodistribution in Wistar rat cerebellum at 300 uCi, iv after 60 mins in presence of citalopram; format: ADME, organism-based; settings: in vivo, 1 h
# [54] = system: Cerebellum; assay: Biodistribution in Wistar rat cerebellum at 300 uCi, iv after 60 mins in presence of GBR-12909; format: ADME, organism-based; settings: in vivo, 1 h
# [55] = system: Thymus; assay: Biodistribution in Wistar rat thymus at 300 uCi, iv after 20 mins; format: ADME, organism-based; settings: in vivo
# [56] = system: Testes; assay: Biodistribution in Wistar rat testes at 300 uCi, iv after 5 mins; format: ADME, organism-based, Testis; settings: in vivo
# [57] = system: Liver; assay: Biodistribution in Wistar rat liver at 300 uCi, iv after 20 mins; format: ADME, organism-based; settings: in vivo
# [58] = system: Striatum; assay: Biodistribution in Wistar rat striatum at 300 uCi, iv after 20 mins; format: ADME, organism-based; settings: in vivo
# [59] = system: Hippocampus; assay: Biodistribution in Wistar rat hippocampus at 300 uCi, iv after 60 mins in presence of nisoxetine; format: ADME, organism-based; settings: in vivo, 1 h
# [60] = system: Striatum; assay: Biodistribution in Wistar rat striatum at 300 uCi, iv after 120 mins; format: ADME, organism-based; settings: in vivo, 2 h
# [61] = system: Hippocampus; assay: Biodistribution in Wistar rat hippocampus at 300 uCi, iv after 120 mins; format: ADME, organism-based; settings: in vivo, 2 h
compound,measurement,setting,value
CN1C2CCC1C(C(=O)OCC[18F])C(c1ccc(Br)cc1)C2 (stereo unspecified),Drug uptake,[1],0.06 % ID/g
same,Drug uptake,[2],3.1 % ID/g
same,Drug uptake,[3],1.51 % ID/g
same,Stability,[4],76%
same,Drug uptake,[5],4.64 % ID/g
same,Drug uptake,[6],1.56 % ID/g
same,Drug uptake,[7],0.58 % ID/g
same,Drug uptake,[8],2.09 % ID/g
same,Drug uptake,[9],0.17 % ID/g
same,Drug uptake,[10],0.59 % ID/g
same,Drug uptake,[11],0.18 % ID/g
same,Drug uptake,[12],0.07 % ID/g
same,Stability,[13],61%
same,Stability,[14],42%
same,Drug uptake,[15],1.82 % ID/g
same,Drug uptake,[16],2.37 % ID/g
same,remaining at 1 h,[17],> 90%
same,Drug uptake,[18],0.96 % ID/g
same,Drug uptake,[19],0.12 % ID/g
same,Drug uptake,[20],0.48 % ID/g
same,Drug uptake,[21],3.19 % ID/g
same,Drug uptake,[22],0.17 % ID/g
same,Drug uptake,[23],0.09 % ID/g
same,Drug uptake,[24],0.41 % ID/g
same,Stability,[25],85%
same,Drug uptake,[26],1.77 % ID/g
same,Stability,[27],> 98%
same,Drug uptake,[28],0.83 % ID/g
same,Drug uptake,[29],0.89 % ID/g
same,Drug uptake,[30],1.23 % ID/g
same,Drug uptake,[31],0.56 % ID/g
same,Drug uptake,[32],0.42 % ID/g
same,Drug uptake,[33],0.48 % ID/g
same,Drug uptake,[34],0.21 % ID/g
same,Drug uptake,[35],1.23 % ID/g
same,Drug uptake,[36],2.29 % ID/g
same,Drug uptake,[37],0.025 % ID/g
same,Drug uptake,[38],2.06 % ID/g
same,Drug uptake,[39],0.16 % ID/g
same,Drug uptake,[40],0.35 % ID/g
same,Drug uptake,[41],3.23 % ID/g
same,Drug uptake,[42],0.45 % ID/g
same,Drug uptake,[43],6.53 % ID/g
same,Drug uptake,[44],6.43 % ID/g
same,Drug uptake,[45],0.08 % ID/g
same,Drug uptake,[46],0.97 % ID/g
same,Drug uptake,[47],3.51 % ID/g
same,Drug uptake,[48],0.17 % ID/g
same,Drug uptake,[49],0.59 % ID/g
same,Drug uptake,[50],0.07 % ID/g
same,Drug uptake,[51],2.58 % ID/g
same,Drug uptake,[52],0.12 % ID/g
same,Drug uptake,[53],0.71 % ID/g
same,Drug uptake,[54],0.62 % ID/g
same,Drug uptake,[55],0.82 % ID/g
same,Drug uptake,[56],0.33 % ID/g
same,Drug uptake,[57],6.8 % ID/g
same,Drug uptake,[58],3.93 % ID/g
same,Drug uptake,[59],0.91 % ID/g
same,Drug uptake,[60],0.39 % ID/g
same,Drug uptake,[61],0.42 % ID/g
